The values that follow come from patent publication US20230078764A1 (Yumanity Therapeutics, Inc., priority 2019, published 2023).

A value given as a limit tells only on which side of the number the result lay.

The target in assay [1] is T1, human SCD1 (Homo sapiens, UniProt O00767).
T1 construct: expressed in transfected cells; host or cells: yeast strain with OLE1 deleted, plasmid-borne human SCD1 (selected in SD-Ura)
T1 sequence (O00767 1-359): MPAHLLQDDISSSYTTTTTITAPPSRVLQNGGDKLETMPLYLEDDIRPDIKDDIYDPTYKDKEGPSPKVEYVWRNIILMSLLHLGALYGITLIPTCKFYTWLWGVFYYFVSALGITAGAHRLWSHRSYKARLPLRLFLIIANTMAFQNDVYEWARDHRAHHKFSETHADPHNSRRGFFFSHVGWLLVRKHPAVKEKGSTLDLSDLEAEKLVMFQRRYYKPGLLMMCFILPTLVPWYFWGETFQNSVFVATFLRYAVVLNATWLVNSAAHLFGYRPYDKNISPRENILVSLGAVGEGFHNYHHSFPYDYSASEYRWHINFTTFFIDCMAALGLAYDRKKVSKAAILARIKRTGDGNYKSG
Put plainly: Growth inhibition of yeast strain expressing human SCD1 as sole desaturase (OLE1 deleted), OD600 readout. The format is cell-based. The settings on record: yeast strain expressing human SCD1 as sole desaturase; growth (OD600) after 40 h at 30° C.; read-out: SCD1 IC50.

In assay [2] the target is T2, human SCD5 (Homo sapiens, UniProt Q86SK9).
T2 construct: expressed in transfected cells; host or cells: yeast strain with OLE1 deleted, plasmid-borne human SCD5 (selected in SD-Ura)
T2 sequence (Q86SK9 1-330): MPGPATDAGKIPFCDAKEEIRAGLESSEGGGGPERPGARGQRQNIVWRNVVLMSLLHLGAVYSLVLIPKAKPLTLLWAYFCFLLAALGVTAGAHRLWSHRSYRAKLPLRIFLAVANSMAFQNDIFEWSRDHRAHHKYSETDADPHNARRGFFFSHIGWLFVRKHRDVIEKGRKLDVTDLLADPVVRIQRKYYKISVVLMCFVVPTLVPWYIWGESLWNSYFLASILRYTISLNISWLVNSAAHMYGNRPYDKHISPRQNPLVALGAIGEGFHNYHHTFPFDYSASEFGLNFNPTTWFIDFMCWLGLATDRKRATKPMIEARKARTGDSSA
Put plainly: Growth inhibition of yeast strain expressing human SCD5 as sole desaturase (OLE1 deleted), OD600 readout. The settings on record: yeast strain expressing human SCD5 as sole desaturase; growth (OD600) after 40 h at 30° C.; read-out: SCD5 IC50. Type of assay: cell-based.

Regarding `CC(=O)c1ccc(C(=O)Nc2ccc(Cc3cccc(Cl)c3)cn2)cn1` [Compound 354], the IC50 came to 6.78 µM in assay [1] and 0.28 µM in assay [2].

As for `CCn1cc(C(=O)Nc2ccc(Cc3ccc(F)cc3)cn2)ccc1=O` [Compound 81, 1-ethyl-N-(5-(4-fluorobenzyl)pyridin-2-yl)-6-oxo-1,6-dihydropyridine-3-carboxamide], the results for the IC50 in assay [1] and in assay [2] were greater than 45 µM and 2.42 µM, respectively.

Consider `CC(C)(C#N)c1ccc(C(=O)Nc2ccc(Cc3cccc(Cl)c3)cn2)cn1` [Compound 491], for which the IC50 was determined as 25 µM in assay [1] and 6.5 µM in assay [2].

In the case of `CN1N=C(C(=O)Nc2ccc(Cc3cccc(Cl)c3)nn2)CCC1=O` [Compound 197, N-(6-(3-chlorobenzyl)pyridazin-3-yl)-1-methyl-6-oxo-1,4,5,6-tetrahydropyridazine-3-carboxamide], the results for the IC50 in assay [1] and in assay [2] were 2.75 µM and 0.37 µM, respectively.

Consider `O=C(Nc1ccc(Cc2cccc(Cl)c2)cn1)c1ccc(=O)n(C2COC2)c1` [Compound 273], for which the values for the IC50 in assay [1] and in assay [2] were greater than 45 µM and 3.25 µM, respectively.

Take `CC(=O)C1CN(C(=O)Nc2ccc(Cc3cccc(Cl)c3)cn2)C1` [Compound 403]: the IC50 in assay [1] and in assay [2] was greater than 45 µM in each case.

Regarding `Cn1ccc(C(=O)Nc2ccc(Cc3cc(F)cc(C#N)c3)cn2)cc1=O` [Compound 620], the IC50 in assay [1] and in assay [2] was 0.2 µM each time.

Consider `CN1N=C(C(=O)Nc2ccc(COc3cccc(F)c3)cn2)CCC1=O` [Compound 260], for which the IC50 in assay [1] is 4.58 µM; in assay [2], 0.17 µM.

Take `O=C(O)c1ccc(C(=O)Nc2ccc(Cc3cccc(Cl)c3)cn2)nn1` [Compound 451]: the results for the IC50 in assay [1] and in assay [2] were 1.4 µM and greater than 45 µM, respectively.

With `CN1N=C(C(=O)Nc2ccc(Cc3cncc(C(F)(F)F)c3)cn2)CCC1=O` [Compound 277], the IC50 is greater than 45 µM in assay [1] and 13.4 µM in assay [2].

Take `CN1N=C(C(=O)Nc2ncc(C(O)c3cccc(F)c3)s2)CCC1=O` (stereo not drawn) [Compound 205, N-(5-((3-fluorophenyl)(hydroxy)methyl)thiazol-2-yl)-1-methyl-6-oxo-1,4,5,6-tetrahydropyridazine-3-carboxamide]: the IC50 in assay [1] is greater than 45 µM; in assay [2] it was 29.4 µM.

`CN1N=C(C(=O)Nc2cnc(Cc3cccc(Cl)c3)nc2)CCC1=O` [Compound 443]: the IC50 in assay [1] and in assay [2] was greater than 45 µM in each case.

Turning to `Cc1cc(C(=O)Nc2ccc(Cc3cc(F)cc(F)c3)cn2)cnc1C#N` [Compound 616], the IC50 in assay [1] worked out at 0.522 µM; in assay [2], 0.01 µM.

Take `CN(c1ccc(NC(=O)c2ccc(=O)n(C)n2)nc1)c1cccc(F)c1` [Compound 301]: the IC50 is greater than 45 µM in assay [1] and 5.22 µM in assay [2].

As to `CC(c1cccc(F)c1)c1cnc(NC(=O)C2=NN(C)C(=O)CC2)s1` (stereo not drawn) [Compound 214, N-(5-(1-(3-fluorophenyl)ethyl)thiazol-2-yl)-1-methyl-6-oxo-1,4,5,6-tetrahydropyridazine-3-carboxamide], the figures for the IC50 in assay [1] and in assay [2] were 14.5 µM and 1.75 µM, respectively.

Regarding `COc1nccc(C(=O)Nc2ccc(Cc3cccc(F)c3)cn2)n1` [Compound 364], the results for the IC50 in assay [1] and in assay [2] were 0.71 µM and 0.02 µM, respectively.

With `Cn1nc(OC(=O)N2CCC(Oc3cccc(Cl)c3)CC2)ccc1=O` [Compound 307], the figures for the IC50 in assay [1] and in assay [2] were 1.17 µM and 0.57 µM, respectively.

`CN1N=C(C(=O)Nc2ccc(Cc3cccc(C(F)F)c3)cn2)CCC1=O` [Example 32, N-(5-(3-(difluoromethyl)benzyl)pyridin-2-yl)-1-methyl-6-oxo-1,4,5,6-tetrahydropyridazine-3-carboxamide]: the figures for the IC50 in assay [1] and in assay [2] were 26.4 µM and 0.31 µM, respectively.

As for `O=C(Nc1ccc(Cc2cc(F)cc(Cl)c2)cn1)c1ccc(CO)nc1` [Compound 111, N-(5-(3-chloro-5-fluorobenzyl)pyridin-2-yl)-6-(hydroxymethyl)nicotinamide], the IC50 in assay [1] and in assay [2] was 0.01 µM in each case.

On to `Cc1cc(C(=O)Nc2ccc(Cc3cc(F)cc(C#N)c3)cn2)cnc1Cl` [Compound 665], for which the IC50 was greater than 45 µM in assay [1] and 0.49 µM in assay [2].

With `C#Cn1nc(C(=O)Nc2ccc(Cc3cccc(Cl)c3)cn2)ccc1=O` [Compound 521], the figures for the IC50 in assay [1] and in assay [2] were 2.5 µM and 5.3 µM, respectively.

For the compound `O=C(Nc1ccc(Cc2ccc(F)c(F)c2)cn1)c1ccc(Cl)nn1` [Compound 585], the IC50 is greater than 45 µM in assay [1] and 0.38 µM in assay [2].

As to `O=C(Nc1ccc(Cc2ccc(F)c(F)c2)cn1)c1ccc2nncn2c1` [Compound 147, N-(5-(3,4-difluorobenzyl)pyridin-2-yl)-[1,2,4]triazolo[4,3-a]pyridine-6-carboxamide], the results for the IC50 in assay [1] and in assay [2] were 0.31 µM and 0.04 µM, respectively.

Regarding `CN1N=C(C(=O)Nc2ccc(COC3(C)CC3)cn2)CCC1=O` [Compound 396], the IC50 in assay [1] and in assay [2] was greater than 45 µM in each case.

For `CN1N=C(C(=O)Nc2ncc(Cc3ccc(F)cc3)s2)CCC1=O` [Compound 208, N-(5-(4-fluorobenzyl)thiazol-2-yl)-1-methyl-6-oxo-1,4,5,6-tetrahydropyridazine-3-carboxamide], the IC50 in assay [1] stood at 0.13 µM; in assay [2], 0.05 µM.

On to `Cn1nc(C(=O)Nc2cnc(Cc3cccc(Cl)c3)nc2)ccc1=O` [Compound 351], for which the IC50 in assay [1] was greater than 45 µM; in assay [2], 35.5 µM.

Regarding `O=C(Nc1ccc(Cc2cccc(Cl)c2)cn1)c1nnc(C(F)(F)F)o1` [Compound 681], the results for the IC50 in assay [1] and in assay [2] were greater than 45 µM and 2.1 µM, respectively.

With `Cn1ccc(C(=O)Nc2ccc(Cc3ccc(F)c(F)c3)cn2)n1` [Compound 371], the IC50 in assay [1] was 0.12 µM; in assay [2] it was 0.01 µM.

Consider `Cc1ccc(C(=O)Nc2ccc(Cc3cc(F)cc(F)c3)cn2)nn1` [Compound 484], for which the figures for the IC50 in assay [1] and in assay [2] were 0.53 µM and 0.014 µM, respectively.

Turning to `O=C(Nc1ccc(Cc2cccc(Cl)c2)cn1)c1cc2ncncc2s1` [Compound 556], the IC50 amounted to 2.3 µM in assay [1] and 0.01 µM in assay [2].

Turning to `N#Cc1cc(F)cc(Cc2ccc(NC(=O)c3cnc(Cl)cn3)nc2)c1` [Compound 646], the IC50 in assay [1] was greater than 45 µM; in assay [2], 0.14 µM.

For the compound `Cn1nc(C(=O)Nc2ccc(COc3ccc(Cl)c(F)c3)cn2)ccc1=O` [Compound 667], the IC50 was greater than 45 µM in assay [1] and 0.31 µM in assay [2].

Consider `CN1CC(C(=O)Nc2ncc(Cc3cccc(F)c3)s2)CC1=O` (stereo not drawn) [Compound 377], for which the IC50 in assay [1] and in assay [2] was greater than 45 µM each time.

Take `N#Cc1cc(C(=O)Nc2ccc(Cc3ccc(F)c(F)c3)cn2)ccn1` [Compound 563]: the IC50 came out at 1.1 µM in assay [1] and 0.57 µM in assay [2].

With `Cn1cc(-c2cnc(NC(=O)Cc3cccc(F)c3)cn2)ccc1=O` [Compound 359], the values for the IC50 in assay [1] and in assay [2] were 18.7 µM and 3.27 µM, respectively.

Regarding `O=C(Nc1ccc(Cc2ccc(F)c(F)c2)cn1)c1ccncc1` [Compound 650], the IC50 in assay [1] was 0.17 µM; in assay [2] it was 0.056 µM.

For the compound `Cn1nc(C(=O)Nc2ccc(Cc3ccc(F)cc3F)cn2)ccc1=O` [Compound 537], the IC50 in assay [1] stood at 17 µM; in assay [2], 0.49 µM.

For the compound `Cn1nc(C(=O)Nc2ccc(Cc3ccc(F)c(C(F)F)c3)cn2)ccc1=O` [Compound 575], the IC50 in assay [1] stood at 0.37 µM; in assay [2], 0.01 µM.

For the compound `CCn1ccc(C(=O)Nc2ccc(Cc3cc(F)cc(F)c3)cn2)n1` [Compound 97, N-(5-(3,5-difluorobenzyl)pyridin-2-yl)-1-ethyl-1H-pyrazole-3-carboxamide], the IC50 was found to be 1.1 µM in assay [1] and 0.02 µM in assay [2].

In the case of `O=C(Nc1ccc(Cc2cccc(Cl)c2)cn1)c1cncc(CO)c1` [Compound 483], the IC50 in assay [1] was determined as 0.075 µM; in assay [2] it was 0.017 µM.

As to `Cn1nc(C(=O)Nc2ccc(Cc3cccc(F)c3F)cn2)ccc1=O` [Compound 551], the IC50 in assay [1] is greater than 45 µM; in assay [2], 1.2 µM.

With `COc1cc(C(=O)Nc2ccc(Cc3cc(F)cc(F)c3)cn2)nn(C)c1=O` [Compound 596], the IC50 in assay [1] is 1.08 µM; in assay [2], 0.026 µM.

Take `O=C(Nc1ccc(Cc2cccc(F)c2)cn1)c1cc2ncncc2s1` [Compound 555]: the IC50 in assay [1] was 0.74 µM; in assay [2], 0.01 µM.

Consider `CC(=O)c1ccc(C(=O)Nc2ccc(Cc3ccc(F)c(F)c3)cn2)nn1` [Compound 516], for which the values for the IC50 in assay [1] and in assay [2] were 0.96 µM and 0.77 µM, respectively.

As for `Cn1nc(C(=O)Nc2ccc(CC3CCCCC3)cn2)ccc1=O` [Example 38, N-(5-(cyclohexylmethyl)pyridin-2-yl)-1-methyl-6-oxo-1,6-dihydropyridazine-3-carboxamide], the IC50 in assay [1] is 15.7 µM; in assay [2] it was 0.89 µM.

The IC50 is the concentration needed to halve the response being measured.
